The source of these data is publication PMC5394417, “Investigating the molecular mechanism of positive and negative allosteric modulators in the calcium-sensing receptor dimer” (Scientific Reports, 2017).

For the assay, the target named is T1, HA-S147A CaSR mutant (Rattus norvegicus, UniProt P48442, S147A).
T1 construct: mGluR5 signal peptide (N); expressed in transfected cells; host or cells: HEK293T
T1 sequence (P48442 20-1079 S147A): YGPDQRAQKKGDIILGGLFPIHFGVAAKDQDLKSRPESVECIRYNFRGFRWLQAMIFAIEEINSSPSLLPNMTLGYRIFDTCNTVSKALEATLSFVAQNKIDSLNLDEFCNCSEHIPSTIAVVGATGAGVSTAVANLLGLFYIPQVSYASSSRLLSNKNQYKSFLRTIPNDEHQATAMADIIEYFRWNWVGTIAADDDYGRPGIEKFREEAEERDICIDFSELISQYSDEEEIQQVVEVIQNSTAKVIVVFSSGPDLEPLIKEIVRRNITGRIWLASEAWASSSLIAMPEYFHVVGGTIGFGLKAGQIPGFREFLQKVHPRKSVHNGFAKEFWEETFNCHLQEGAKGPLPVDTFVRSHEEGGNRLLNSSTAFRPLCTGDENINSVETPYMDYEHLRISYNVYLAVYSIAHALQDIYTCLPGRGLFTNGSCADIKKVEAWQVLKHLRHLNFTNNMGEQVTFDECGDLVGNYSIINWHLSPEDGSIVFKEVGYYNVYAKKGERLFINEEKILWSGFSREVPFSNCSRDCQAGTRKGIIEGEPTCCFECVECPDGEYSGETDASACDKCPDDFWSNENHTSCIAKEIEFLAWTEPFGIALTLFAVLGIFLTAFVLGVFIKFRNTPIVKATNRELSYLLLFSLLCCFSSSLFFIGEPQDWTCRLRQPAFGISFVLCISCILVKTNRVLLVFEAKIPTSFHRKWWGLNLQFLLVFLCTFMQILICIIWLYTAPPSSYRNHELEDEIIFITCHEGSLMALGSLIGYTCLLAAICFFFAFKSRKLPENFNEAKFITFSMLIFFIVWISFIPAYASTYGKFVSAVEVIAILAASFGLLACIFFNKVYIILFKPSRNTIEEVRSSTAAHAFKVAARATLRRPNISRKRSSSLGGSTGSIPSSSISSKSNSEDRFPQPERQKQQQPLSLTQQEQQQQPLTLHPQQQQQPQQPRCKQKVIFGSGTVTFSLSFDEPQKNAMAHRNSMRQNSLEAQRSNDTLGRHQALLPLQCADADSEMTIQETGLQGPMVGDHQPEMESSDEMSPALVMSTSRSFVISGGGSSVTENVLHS
The assay is described as follows: IP-One assay, HEK293T transiently transfected. It is filed as cell-based.

Molecules are shown by their SMILES.

As for `[Ca+2]` [Ca^2+], for the setting “Ca^2+ alone”, the response was half-maximal at 9.07 mM (EC50), the “Hill coefficient ± S.E.M.” value amounted to 3.50 ± 0.26 and the “pEC50 ± S.E.M.” value came out at 2.04 ± 0.01. In addition, the “Max ± S.E.M.” value (normalized to maximum response of WT CaSR) turned out to be 150 ± 17%.
